In patent US6054475A, “Substituted dihydrobenzofuran-based phosphodiesterase 4 inhibitors useful for treating airway disorders” (Byk Gulden Lomberg Chemische Fabrik GmbH, priority 1996, dated 2000):

tested on: PDE4; experiment: Inhibition of PDE4 activity (method of Bauer and Schwabe, adapted to microtiter plates); type: biochemical; settings: Table A; inhibitory concentrations as -log IC50 (mol/l)
Procedure: The activity test was carried out according to the method of Bauer and Schwabe, which was adapted to microtiter plates (Naunyn-Schmiedeberg's Arch. Pharmacol. 311, 193-198, 1980). The PDE reaction takes place here in the first step. In a second step, the resulting 5'-nucleotide is cleaved to give the uncharged nucleoside by a 5'-nucleotidase of the snake venom from Crotalus atrox. In the third step, the nucleoside is separated from the remaining charged substrate on ion exchange columns. Using 2 ml of 30 mM ammonium formate (pH 6.0), the columns are eluted directly into minivials to which is additionally added 2 ml of scintillator fluid for counting.

Row | SMILES | -log IC50 (inhibition of PDE4 activity)
1 | COc1ccc(C2(C#N)CCOCC2)c2c1OC1(CCCC1)C2 [Compound 9, 4-a-Cyano-4-e-(2,3-dihydro-7-methoxybenzofuran-2-spiro-1'-cyclopentan-4-yl)tetrahydropyran] | 8.26
2 | COc1ccc([C@]2(C#N)CC[C@@H](C(=O)NO)CC2)c2c1OC1(CCCC1)C2 [Compound 7, cis-4-Cyano-4-(2,3-dihydro-7-methoxybenzofuran-2-spiro-1'-cyclopentan-4-yl)cyclohexane-1-carboxylic acid hydroxylamide] | 7.52
3 | COc1ccc(C2(OC)CCOCC2)c2c1OC1(CCCC1)C2 [Compound 13, 4-a-Methoxy-4-e-(2,3-dihydro-7-methoxybenzofuran-2-spiro-1'-cyclopentan-4-yl)tetrahydropyran] | 7.41
4 | COc1ccc(C2(C#N)CCS(=O)(=O)CC2)c2c1OC1(CCCC1)C2 [Compound 11, 1,1-Dioxo-4-a-cyano-4-e-(2,3-dihydro-7-methoxybenzofuran-2-spiro-1'-cyclopentan-4-yl)tetrahydro-1-thiopyran] | 7.72
5 | COc1ccc(C2(C#N)CCNC(=O)CC2)c2c1OC1(CCCC1)C2 (centres unmarked) [Compound 16, 7-Oxo-4-cyano-4-(2,3-dihydro-7-methoxybenzofuran-2-spiro-1'-cyclopentan-4-yl)hexahydroazepine] | 7.96
6 | COc1ccc([C@]2(C#N)CC[C@@H](C(N)=O)CC2)c2c1OC1(CCCC1)C2 [Compound 5, cis-4-Cyano-4-(2,3-dihydro-7-methoxybenzofuran-2-spiro-1'-cyclopentan-4-yl)cyclohexane-1-carboxamide] | 8.31
7 | COc1ccc([C@]2(C#N)CC[C@@H](C(=O)O)CC2)c2c1OC1(CCOCC1)C2 [Compound 4, cis-4-Cyano-4-(2,3-dihydro-7-methoxybenzofuran-2-spiro-4'-tetrahydropyran-4-yl)cyclohexane-1-carboxylic acid] | 7.69
8 | COc1ccc([C@]2(C#N)CC[C@@H](OP(=O)(O)Oc3ccccc3)CC2)c2c1OC1(CCCC1)C2 [Compound 8, cis-4-Cyano-4-(2,3-dihydro-7-methoxybenzofuran-2-spiro-1'-cyclopentan-4-yl)cyclohexyl-1-phenyl phosphate] | 7.44
9 | COc1ccc([C@]2(C#N)CC[C@@H](C(=O)O)CC2)c2c1OC1(CCCC1)C2 [Compound 2.1, cis-4-Cyano-4-(2,3-dihydro-7-methoxybenzofuran-2-spiro-1'-cyclopentan-4-yl)cyclohexane-1-carboxylic acid] | 8.22
10 | COc1ccc(C2(C#N)CCC(=NO)CC2)c2c1OC1(CCCC1)C2 (centres unmarked) [Compound 14, 4-a-Cyano-4-e-(2,3-dihydro-7-methoxybenzofuran-2-spiro-1'-cyclopentan-4-yl)cyclohexan-1-one oxime] | 7.78
11 | COc1ccc([C@]2(C#N)CC[C@@H](C(N)=O)CC2)c2c1OC1(CCOCC1)C2 [Compound 6, cis-4-Cyano-4-(2,3-dihydro-7-methoxybenzofuran-2-spiro-4'-tetrahydropyran-4-yl)cyclohexane-1-carboxamide] | 7.65
